The assay concerns bacteria.
The mark [1] stands for this setting: A. calcoaceticus AC002, agarose dilution.
[2] abbreviates: E. cloacae ECL007, agarose dilution.
Setting [3] is: E. coli ECO005, agarose dilution.
Setting [4] is: E. faecalis EFS001, agarose dilution.
Setting [5] is: E. faecalis EFS008, agarose dilution.
The mark [6] stands for this setting: K. pneumoniae KP001, agarose dilution.
The mark [7] stands for this setting: P. aeruginosa PA004, agarose dilution.
[8] abbreviates: S. aureus SA014, agarose dilution.
Where [9] appears, read: S. aureus SA093, agarose dilution.
The mark [10] stands for this setting: S. epidermidis SE010, agarose dilution.
The mark [11] stands for this setting: S. maltophilia SMA002, agarose dilution.
The mark [12] stands for this setting: S. marcescens SMS003, agarose dilution.

What is called MIC is the lowest concentration that inhibits growth of the organism.

Read-outs that look alike come from different tables or passages of the source.

Regarding “I L R R W P W W P W R R K [MBI 11B1CNW1]”, the MIC was 16 µg/mL (A. calcoaceticus AC002); 64 µg/mL (E. cloacae ECL007); 32 µg/mL (E. coli ECO005); 8 µg/mL (E. faecalis EFS004); 32 µg/mL (K. pneumoniae KP001); 64 µg/mL (P. aeruginosa PA004). Also, the minimum inhibitory concentration (MIC) by setting is: (S. aureus SA014) 16 µg/mL; (S. epidermidis SE010) 8 µg/mL; (S. maltophilia SMA002) 32 µg/mL; (S. marcescens SMS003) more than 128 µg/mL.

In the case of I L R R W P W W P W R R R [MBI 11B9ACN], the minimum inhibitory concentration (MIC) is 32 µg/mL (A. calcoaceticus AC001); 8 µg/mL (E. coli ECO003); 8 µg/mL (E. faecalis EFS004); 4 µg/mL (E. faecium EFM001); 32 µg/mL (K. pneumoniae KP002); more than 128 µg/mL (P. aeruginosa PA005). Further, the MIC (S. aureus SA019) was determined as 2 µg/mL, the MIC (S. epidermidis SE002) was 2 µg/mL, the minimum inhibitory concentration (MIC) (S. maltophilia SMA001) came to 16 µg/mL and the minimal inhibitory concentration (MIC) (S. marcescens SMS004) is more than 128 µg/mL.

For I L R W P W W P W A R K [MBI 11H10CN], the MIC is 4 µg/mL under setting [1]; more than 128 µg/mL under setting [2]; 16 µg/mL under setting [3]; 2 µg/mL under setting [4]; 8 µg/mL under setting [5]; 16 µg/mL under setting [6]. Moreover, the MIC by setting is: under setting [7], more than 128 µg/mL; under setting [8], 4 µg/mL; under setting [9], 1 µg/mL; under setting [10], 4 µg/mL; under setting [11], 64 µg/mL; under setting [12], more than 128 µg/mL.

In the case of I L R W P W W P W R A K [MBI 11H11CN], the minimal inhibitory concentration (MIC) by setting is: under setting [1], 4 µg/mL; under setting [2], more than 128 µg/mL; under setting [3], 16 µg/mL; under setting [4], 2 µg/mL; under setting [5], 8 µg/mL; under setting [6], 16 µg/mL. For the same substance, the minimum inhibitory concentration (MIC) is, setting by setting: under setting [7], more than 128 µg/mL; under setting [8], 4 µg/mL; under setting [9], 1 µg/mL; under setting [10], 4 µg/mL; under setting [11], 64 µg/mL; under setting [12], more than 128 µg/mL.

Consider I L R W P W W P W R R A [MBI 11H12CN], for which the MIC under setting [1] is 4 µg/mL; the minimum inhibitory concentration (MIC) under setting [2] is more than 128 µg/mL; the MIC under setting [3] turned out to be 16 µg/mL; the MIC under setting [4] is 2 µg/mL; the MIC under setting [5] stood at 8 µg/mL; the MIC under setting [6] is 16 µg/mL. For the same substance, the MIC under setting [7] was more than 128 µg/mL; the minimal inhibitory concentration (MIC) under setting [8] stood at 2 µg/mL; the minimal inhibitory concentration (MIC) under setting [9] is 1 µg/mL; the MIC under setting [10] was determined as 4 µg/mL; the minimum inhibitory concentration (MIC) under setting [11] was found to be 64 µg/mL; the minimum inhibitory concentration (MIC) under setting [12] was more than 128 µg/mL.

As for “ILRWPWWPWRRKDMILKKAGS [MBI 11B18CN]”, the minimal inhibitory concentration (MIC) (A. calcoaceticus AC002) is 2 µg/mL; the MIC (E. cloacae ECL007) is more than 128 µg/mL; the minimal inhibitory concentration (MIC) (E. coli ECO005) stood at 32 µg/mL; the minimum inhibitory concentration (MIC) (E. faecalis EFS008) was found to be 4 µg/mL; the MIC (K. pneumoniae KP001) came to 32 µg/mL; the minimum inhibitory concentration (MIC) (P. aeruginosa PA004) was more than 128 µg/mL. In addition, the minimum inhibitory concentration (MIC) was 2 µg/mL (S. aureus SA093), 4 µg/mL (S. epidermidis SE010), 64 µg/mL (S. maltophilia SMA002) and more than 128 µg/mL (S. marcescens SMS003).

Regarding “ILRWPWWPWRRKMILKKAGS [MBI 11B17CN]”, the minimal inhibitory concentration (MIC) (A. calcoaceticus AC002) is 2 µg/mL; the minimal inhibitory concentration (MIC) (E. cloacae ECL007) is more than 128 µg/mL; the MIC (E. coli ECO005) is 8 µg/mL; the MIC (E. faecalis EFS008) worked out at 4 µg/mL; the MIC (K. pneumoniae KP001) came out at 16 µg/mL; the MIC (P. aeruginosa PA004) is more than 128 µg/mL. Besides, the MIC is 2 µg/mL (S. aureus SA093), 4 µg/mL (S. epidermidis SE010), 32 µg/mL (S. maltophilia SMA002) and more than 128 µg/mL (S. marcescens SMS003).

Turning to I L R W P W W P W R R K [MBI 11B7CNF12], the MIC runs as follows: under setting [1], 4 µg/mL; under setting [2], more than 128 µg/mL; under setting [3], 16 µg/mL; under setting [4], 2 µg/mL; under setting [5], 8 µg/mL; under setting [6], 16 µg/mL. In addition, the minimum inhibitory concentration (MIC) reads like this: under setting [7], more than 128 µg/mL; under setting [8], 2 µg/mL; under setting [9], 1 µg/mL; under setting [10], 4 µg/mL; under setting [11], 64 µg/mL; under setting [12], more than 128 µg/mL.

For the substance I L R Y V Y Y V Y R R K [MBI 11A8CN], the MIC was 8 µg/mL (A. calcoaceticus AC002); more than 128 µg/mL (E. cloacae ECL007); 32 µg/mL (E. coli ECO005); 4 µg/mL (E. faecalis EFS001); 128 µg/mL (K. pneumoniae KP001); more than 128 µg/mL (P. aeruginosa PA004). Further, the minimal inhibitory concentration (MIC) is 1 µg/mL (S. aureus SA093), 6 µg/mL (S. epidermidis SE010), 32 µg/mL (S. maltophilia SMA002) and more than 128 µg/mL (S. marcescens SMS003).

With K R R W P W W P W R L I [MBI 11B7CNR], the MIC was 4 µg/mL (A. calcoaceticus AC002); 64 µg/mL (E. cloacae ECL007); 8 µg/mL (E. coli ECO005); 4 µg/mL (E. faecalis EFS001); 8 µg/mL (K. pneumoniae KP001); 64 µg/mL (P. aeruginosa PA004). In addition, the MIC is, setting by setting: (S. aureus SA093) 2 µg/mL; (S. epidermidis SE010) 4 µg/mL; (S. maltophilia SMA002) 32 µg/mL; (S. marcescens SMS003) more than 128 µg/mL.

K R R W V W W V W R L I [MBI 11F4CNR]: the minimum inhibitory concentration (MIC) by setting is: (A. calcoaceticus AC002) 16 µg/mL; (E. cloacae ECL007) 32 µg/mL; (E. coli ECO005) 32 µg/mL; (E. faecalis EFS008) 32 µg/mL; (K. pneumoniae KP001) 32 µg/mL; (P. aeruginosa PA004) 64 µg/mL. Further, the minimum inhibitory concentration (MIC) was 8 µg/mL (S. aureus SA093), 3 µg/mL (S. epidermidis SE010), 32 µg/mL (S. maltophilia SMA002) and more than 128 µg/mL (S. marcescens SMS003).

Regarding L K K W P W W P W R R K [MBI 11D1CN], the minimum inhibitory concentration (MIC) reads like this: (A. calcoaceticus AC001) more than 128 µg/mL; (E. cloacae ECL007) more than 128 µg/mL; (E. coli ECO002) 16 µg/mL; (E. faecalis EFS002) 32 µg/mL; (E. faecium EFM001) 16 µg/mL; (K. pneumoniae KP002) 64 µg/mL. In addition, the MIC was more than 128 µg/mL (P. aeruginosa PA003); 2 µg/mL (S. aureus SA004); 8 µg/mL (S. epidermidis SE010); 64 µg/mL (S. maltophilia SMA001); more than 128 µg/mL (S. marcescens SMS003).

Take L R W W W P W R R K [MBI 11G25CN]: the MIC by setting is: under setting [1], 2 µg/mL; under setting [2], more than 128 µg/mL; under setting [3], 8 µg/mL; under setting [4], 2 µg/mL; under setting [5], 16 µg/mL; under setting [6], 16 µg/mL. The minimum inhibitory concentration (MIC) runs as follows: under setting [7], 64 µg/mL; under setting [8], 2 µg/mL; under setting [9], 1 µg/mL; under setting [10], 2 µg/mL; under setting [11], 32 µg/mL; under setting [12], more than 128 µg/mL.

Consider P W W P W R R K [MBI 11D3CN], for which the minimum inhibitory concentration (MIC) (A. calcoaceticus AC001) is more than 128 µg/mL; the minimal inhibitory concentration (MIC) (E. cloacae ECL007) was more than 128 µg/mL; the MIC (E. coli ECO002) stood at 64 µg/mL; the minimal inhibitory concentration (MIC) (E. faecalis EFS002) was determined as 32 µg/mL; the MIC (E. faecium EFM003) turned out to be 8 µg/mL; the minimal inhibitory concentration (MIC) (K. pneumoniae KP002) is more than 128 µg/mL. For the same substance, the MIC (P. aeruginosa PA024) was more than 128 µg/mL, the MIC (S. aureus SA009) worked out at 8 µg/mL, the MIC (S. maltophilia SMA001) is 64 µg/mL and the MIC (S. marcescens SMS004) was more than 128 µg/mL.

For the substance W R W W K P K W R W P K W [MBI 11J02CN], the minimum inhibitory concentration (MIC) under setting [1] is 4 µg/mL; the MIC under setting [2] came out at 64 µg/mL; the MIC under setting [3] worked out at 4 µg/mL; the MIC under setting [4] came to 4 µg/mL; the MIC under setting [5] was 16 µg/mL; the MIC under setting [6] turned out to be 4 µg/mL. Also, the MIC by setting is: under setting [7], 32 µg/mL; under setting [8], 2 µg/mL; under setting [9], 1 µg/mL; under setting [10], 2 µg/mL; under setting [11], 8 µg/mL; under setting [12], more than 128 µg/mL.

For the substance W W K K W P W W P W R R K [MBI 11C5CN], the minimum inhibitory concentration (MIC) by setting is: (A. calcoaceticus AC001) 32 µg/mL; (E. cloacae ECL007) more than 128 µg/mL; (E. coli ECO001) 8 µg/mL; (E. faecalis EFS002) 16 µg/mL; (E. faecium EFM003) 2 µg/mL; (K. pneumoniae KP002) 16 µg/mL. The minimal inhibitory concentration (MIC) reads like this: (P. aeruginosa PA003) 64 µg/mL; (S. aureus SA009) 2 µg/mL; (S. epidermidis SE002) 2 µg/mL; (S. maltophilia SMA002) 16 µg/mL; (S. marcescens SMS004) more than 28 µg/mL.

As for W W P W R R K [MBI 11D9M8], the MIC is 128 µg/mL under setting [1]; more than 128 µg/mL under setting [2]; more than 128 µg/mL under setting [3]; 8 µg/mL under setting [4]; 128 µg/mL (E. faecalis EFS002); 128 µg/mL under setting [5]. Besides, the MIC is, setting by setting: (E. faecium EFM002) 32 µg/mL; under setting [6], more than 128 µg/mL; under setting [7], more than 128 µg/mL; (S. aureus SA007) 32 µg/mL; under setting [8], 128 µg/mL; (S. aureus SA016) 128 µg/mL. Further, the minimal inhibitory concentration (MIC) under setting [9] is 8 µg/mL, the MIC under setting [10] came to 128 µg/mL, the minimum inhibitory concentration (MIC) under setting [11] was more than 128 µg/mL and the minimum inhibitory concentration (MIC) under setting [12] is more than 128 µg/mL.

The record behind these values is patent publication US6503881B2 (priority 1996, dated 2003).
